Laboratory results published in patent US20210380586A1, “2-INDOLYL IMIDAZO[4,5-D]PHENANTHROLINE POLYMORPHS AND COMPOSITIONS REGARDING THE SAME” (Aptose Biosciences Inc., priority 2020, published 2021).

Test: Effect of drying on polymorphic form, XRPD
Type: physicochemical
Experimental: Crystalline Compound I-tetrahydrate Form 2 was dried under varying temperature, pressure, and time as indicted in Table 2. After the drying, the resulting crystals were analyzed by XRPD to determine its polymorphic form.

Cc1[nH]c2ccc(F)cc2c1-c1nc2c3cccnc3c3ncccc3c2[nH]1 [Compound I-hydrate Form 2]
stable: stability under various drying conditions (15-35 ° C., 600-0 mbar, up to 3 days)
complete conversion to Form 1: form change under full vacuum (full vacuum (0 mbar) for four hours, all temperature tested)
Form 2: Polymorphic form by XRPD after drying (15 ° C., 0 mbar, drying time 1 h) | Polymorphic form by XRPD after drying (15 ° C., 400 mbar, drying time 1 h) | Polymorphic form by XRPD after drying (15 ° C., 400 mbar, drying time 4 h) | Polymorphic form by XRPD after drying (15 ° C., 400 mbar, drying time 24 h) | Polymorphic form by XRPD after drying (15 ° C., 400 mbar, drying time 3 days) | Polymorphic form by XRPD after drying (15 ° C., 600 mbar, drying time 1 h) | Polymorphic form by XRPD after drying (15 ° C., 600 mbar, drying time 4 h) | Polymorphic form by XRPD after drying (15 ° C., 600 mbar, drying time 24 h) | Polymorphic form by XRPD after drying (15 ° C., 600 mbar, drying time 3 days) | Polymorphic form by XRPD after drying (25 ° C., 0 mbar, drying time 1 h) | Polymorphic form by XRPD after drying (25 ° C., 400 mbar, drying time 1 h) | Polymorphic form by XRPD after drying (25 ° C., 400 mbar, drying time 4 h) | Polymorphic form by XRPD after drying (25 ° C., 400 mbar, drying time 24 h) | Polymorphic form by XRPD after drying (25 ° C., 400 mbar, drying time 3 days) | Polymorphic form by XRPD after drying (25 ° C., 600 mbar, drying time 1 h) | Polymorphic form by XRPD after drying (25 ° C., 600 mbar, drying time 4 h) | Polymorphic form by XRPD after drying (25 ° C., 600 mbar, drying time 24 h) | Polymorphic form by XRPD after drying (25 ° C., 600 mbar, drying time 3 days) | Polymorphic form by XRPD after drying (35 ° C., 400 mbar, drying time 1 h) | Polymorphic form by XRPD after drying (35 ° C., 400 mbar, drying time 4 h) | Polymorphic form by XRPD after drying (35 ° C., 400 mbar, drying time 24 h) | Polymorphic form by XRPD after drying (35 ° C., 600 mbar, drying time 1 h) | Polymorphic form by XRPD after drying (35 ° C., 600 mbar, drying time 4 h) | Polymorphic form by XRPD after drying (35 ° C., 600 mbar, drying time 24 h)
Form 1: Polymorphic form by XRPD after drying (15 ° C., 0 mbar, drying time 4 h) | Polymorphic form by XRPD after drying (15 ° C., 0 mbar, drying time 24 h) | Polymorphic form by XRPD after drying (15 ° C., 0 mbar, drying time 3 days) | Polymorphic form by XRPD after drying (25 ° C., 0 mbar, drying time 4 h) | Polymorphic form by XRPD after drying (25 ° C., 0 mbar, drying time 24 h) | Polymorphic form by XRPD after drying (35 ° C., 0 mbar, drying time 4 h) | Polymorphic form by XRPD after drying (35 ° C., 0 mbar, drying time 24 h)
Form 1 and Form 2: Polymorphic form by XRPD after drying (35 ° C., 0 mbar, drying time 1 h)
